According to ChEMBL document CHEMBL3507680, “University of Dundee, Gates Library screen for HepG2 cell viability”:

assay: Human HepG2 cell viability assay in 384 well format; format: toxicity, cell-based; design: dose 125 nL, time 70.5 hour; concentration not given beside the values; conditions: HepG2 cells, read-out: Inhibition

Going from `Cc1noc(C)c1CN1CC[C@H]2OCC[C@@]2(C(=O)NC2CCCC2)C1` to `CC(=O)NC1(C(=O)N(C)Cc2c(C)noc2C)CCCCC1`, the cytotoxicity at 70.5 h rises from -9.16% to 20.8%.

Compared with `O=C(c1ccc(F)cc1)N1C[C@H]2CCC[C@@]2(COCc2ccncc2)C1`, `Fc1ccc(NC2CCCN(Cc3ccncc3)C2)cc1` (stereo unspecified) is higher in cytotoxicity at 70.5 h: -0.425% for the first, 26.1% for the second.

First: CC(=O)NCCc1ccc(S(=O)(=O)N(CC(C)C)C(C)C)s1
Second: COCC(=O)N[C@H](C(=O)NC(C)c1cccc(C)c1C)C(C)C (stereo partly specified)
The cytotoxicity at 70.5 h of the first is higher: 33% for the first, 0.118% for the second.

First: COc1c(CNC2CCCOc3ccc(F)cc32)c(C)nn1C (stereo unspecified)
Second: COc1cccc(CNc2c(C)nn(C(C)C)c2C)c1
The cytotoxicity at 70.5 h of the first is lower: -2.26% for the first, -2.2% for the second.

Compared with `CSC(C)C(=O)N1CCN(CCO)CC1` (stereo unspecified), `CCCN1CCN(C(=O)Cn2nc(C(F)(F)F)c(Br)c2C2CC2)CC1` is higher in cytotoxicity at 70.5 h: -6.94% for the first, -6.28% for the second.

Going from `COC(=O)[C@@H]1Cc2[nH]cnc2CN1Cc1cc2ccccc2o1` to `Cc1nc(N2CCOCC2)nc(C)c1NC(=O)COc1ccccc1`, the cytotoxicity at 70.5 h rises from -2.5% to -1.69%.

Compared with `O=C1CC(c2ccncc2)C2(CCN(C(=O)c3ccnnc3)CC2)N1` (stereo unspecified), `CNC(=O)CN1CCCC12CCN(C(=O)c1ccc(F)cc1)CC2` is lower in cytotoxicity at 70.5 h: -8.48% for the first, -11% for the second.

Compared with `Cc1ncccc1-c1cc2cccnc2n1CCCNC(=O)C(C)(C)C`, `Cc1cnn(CCNCc2ccccc2OCc2ccccn2)c1` is lower in cytotoxicity at 70.5 h: 2.29% for the first, -0.163% for the second.

Compared with `c1ccc(-n2nnnc2NCc2ccc3c(c2)OCO3)cc1`, `COc1ccccc1N1CCC(CNCc2cccc(C#N)c2)C1` (stereo unspecified) is higher in cytotoxicity at 70.5 h: 4.41% for the first, 35.6% for the second.

Compared with `CN(C)C(=O)CCS(=O)(=O)Cc1cc(Cl)c2c(c1)OCCO2`, `CC(C)(C)N1CC(c2ncc(-c3ccc4c(c3)OCCO4)[nH]2)CC1=O` (stereo unspecified) is higher in cytotoxicity at 70.5 h: -6.03% for the first, -2.24% for the second.

Compared with `COc1ccc(CN2C[C@@H]3CN(CCO)C[C@@H]3C2=O)cc1`, `CNC(=O)[C@H]1C[C@@H]2CN(Cc3cccnc3OC)C[C@@H]2N1C(C)C` is higher in cytotoxicity at 70.5 h: -11.6% for the first, -7.89% for the second.

Compared with `CS(=O)(=O)NC1CCCN(C(=O)NCc2ccoc2)C1` (stereo unspecified), `Cn1ccnc1C(=O)N[C@@H]1CN(Cc2ccoc2)[C@@H]2CCCO[C@@H]21` is lower in cytotoxicity at 70.5 h: 0.0228% for the first, -2.77% for the second.

First: CCc1nnc(CN(CC)C(=O)C2CC(=O)N(Cc3cccnc3)C2)o1 (stereo unspecified)
Second: CCCN(CC)C(=O)c1cc(Cn2c(C)nc3ccccc32)[nH]n1
The cytotoxicity at 70.5 h of the first is lower: -11.4% for the first, -4.58% for the second.

Going from `Cc1ccccc1C(=O)NC1CCN(c2cnn(C)c2)C1=O` (stereo unspecified) to `O=C1C(NCc2nnc3n2CCCC3)CCN1c1ccccc1` (stereo unspecified), the cytotoxicity at 70.5 h falls from -4.47% to -5.59%.

Compared with `CCc1c(C(=O)NCC(=O)OCC2CC2)cnn1-c1ccc(C)cc1`, `O=C(NCc1ccc(OCC2CC2)nc1)c1c(F)cccc1F` is lower in cytotoxicity at 70.5 h: 27.6% for the first, -3.71% for the second.

Going from `CC(C)CC(=O)N1CC[C@@H]2[C@H](CC1)N(S(C)(=O)=O)CCS2(=O)=O` to `CN1C[C@H]2CCN(C(=O)NC3CCCC3)CC[C@H]2S1(=O)=O`, the cytotoxicity at 70.5 h falls from -4.28% to -17.8%.

Going from `Cc1cnn(C2CCCN(C(=O)c3ccc(C(N)=O)cn3)C2)c1` (stereo unspecified) to `Cc1cnn(C2CCCN(C(=O)c3cc4nc(C)ccc4o3)C2)c1` (stereo unspecified), the cytotoxicity at 70.5 h falls from 3.91% to -5.06%.

First: Cc1nc(C)n(CC2CCCN2CCCc2ccccc2)n1 (stereo unspecified)
Second: CCc1nnc2n1CCN(C(=O)C(C)COCc1ccccc1)C2 (stereo unspecified)
The cytotoxicity at 70.5 h of the first is higher: -6.68% for the first, -9.75% for the second.

Compared with `Cn1ccnc1CN1CCN(Cc2cc(-c3ccccc3)no2)CC1`, `Cn1cccc1CN1CCc2c(nc(-c3ccccn3)[nH]c2=O)C1` is higher in cytotoxicity at 70.5 h: -16.7% for the first, -2.89% for the second.

First: O=C(c1cscn1)N1CCC2(CC1)CN(c1ccccn1)CCO2
Second: O=C(c1cscn1)N1CCC2(CCCN(CCOc3ccccc3)C2)C1 (stereo unspecified)
The cytotoxicity at 70.5 h of the first is higher: -9.14% for the first, -19.6% for the second.

Compared with `CC(C)c1nc(C2CCCN2CCc2ccncc2)no1` (stereo unspecified), `CCN1CCN(C(=O)COCc2nc(-c3ccncc3)no2)CC1` is lower in cytotoxicity at 70.5 h: 16.2% for the first, -1.19% for the second.

Going from `CN(C)CC1CN(Cc2c(Cl)ccc3cccnc23)CCO1` (stereo unspecified) to `CN(C)CC(C)(C)CN1CCC(c2ccnc(-c3cccc(O)c3)c2)C1` (stereo unspecified), the cytotoxicity at 70.5 h falls from -4.72% to -8.34%.

Going from `O=C(c1cscn1)N1CCCC12CCCN(S(=O)(=O)c1ccccc1)C2` (stereo unspecified) to `O=C(c1cc[nH]n1)N1CCc2ccc(S(=O)(=O)N3CCOCC3)cc2C1`, the cytotoxicity at 70.5 h rises from -2.41% to 3.21%.

Going from `CC1(c2[nH]ncc2C(N)=O)CCN(c2ncccn2)CC1` to `Cc1ccnc(C2CN(c3ncccn3)C2)n1`, the cytotoxicity at 70.5 h falls from 17.1% to -12.1%.

Going from `Cc1ncccc1NC(=O)[C@@H]1CCO[C@@H]2CCN(c3ccncn3)C[C@H]21` to `Clc1ccc(N2CCC(C3CCN(Cc4cccnc4)CC3)C2)nc1` (stereo unspecified), the cytotoxicity at 70.5 h falls from -6.04% to -8.52%.

Compared with `Cc1ccccc1C1(CNCc2cnc(N3CCOCC3)nc2)CC1`, `c1cnc(N2CCCC(NCc3cccc4c3OCCO4)C2)nc1` (stereo unspecified) is lower in cytotoxicity at 70.5 h: 5.8% for the first, 3.71% for the second.

Compared with `CCN(C(C)=O)c1nc(CN2CCN(c3nccs3)CC2)cs1`, `CCOc1ccnc(N2CCN(C(=O)c3ccc(OC)cc3)CC2)n1` is lower in cytotoxicity at 70.5 h: 23.5% for the first, -12.5% for the second.

First: O=C(NCCOc1ccc(F)c(F)c1)NCc1ccncc1
Second: COc1ccc(C(C)NC(=O)NCCc2ccc(C)nc2)c(OC)c1 (stereo unspecified)
The cytotoxicity at 70.5 h of the first is lower: -11.2% for the first, 24% for the second.

Going from `CCOC(C)C(=O)Nc1ccc(Sc2nncn2C)c(Cl)c1` (stereo unspecified) to `CCOc1cc(CNCCCn2ccnc2)cc(Cl)c1OC`, the cytotoxicity at 70.5 h rises from -4.37% to 3.61%.

Compared with `CCSCCC(=O)NCCn1nc2ccccn2c1=O`, `COc1ccc2nnc(CCCC(=O)NCCc3ccccc3)n2n1` is lower in cytotoxicity at 70.5 h: -7.12% for the first, -9.61% for the second.

Going from `CCN1CCN(C)C2(CCN(Cc3ccc(C)o3)CC2)C1=O` to `CCOC1COC2(CCN(Cc3ccc(C)cc3)CC2)C1` (stereo unspecified), the cytotoxicity at 70.5 h falls from -7.08% to -11.9%.

Going from `CCn1c(CC2CCN(C(=O)c3cc(C(C)C)nn3C)CC2)n[nH]c1=O` to `CC(C(=O)NC1CC1)N1CCN(Cc2ccn(C)c(=O)c2)CC1` (stereo unspecified), the cytotoxicity at 70.5 h falls from 2.37% to 0.0611%.

Going from `O=C(CC1CSc2nccc(=O)n21)NCc1ccco1` (stereo unspecified) to `CCNC(=O)Nc1ncc(-c2cccnc2)s1`, the cytotoxicity at 70.5 h falls from -1.36% to -6.64%.

Compared with `NC(=O)CN1CCCN(C(=O)c2ccc(SC(F)F)cc2)CC1`, `O=C(c1ccccn1)N1CCCN(Cc2nnc(C3CC3)o2)CC1` is lower in cytotoxicity at 70.5 h: -6.46% for the first, -9.21% for the second.

Compared with `Cc1ccc(NC(=O)N2CCC(CO)(Nc3ccccc3)CC2)cc1`, `Cc1ccc([C@@H]2CN(C(=O)c3ccc[nH]3)C[C@H]2NC(=O)C2CC2)cc1` is lower in cytotoxicity at 70.5 h: 17.1% for the first, -8.09% for the second.

Going from `CC(=O)N1CCC1c1cc(N2CCNC(=O)C2)nc(C)n1` (stereo unspecified) to `Cc1cc(-c2cnc(N3CCNC(=O)C3)nc2-c2cccnc2C)on1`, the cytotoxicity at 70.5 h falls from -5.23% to -15.9%.

First: CS(=O)(=O)N1CC[C@]2(O)CCN(c3cc(C#N)ccn3)C[C@@H]2C1
Second: N#Cc1cccc(N2CCCC3(CCC(=O)N(C4CCCC4)C3)C2)n1 (stereo unspecified)
The cytotoxicity at 70.5 h of the first is lower: -11.9% for the first, 4.95% for the second.

Going from `Cc1cccc(N2CC[C@@H]3CN(Cc4csc(C)n4)CCO[C@@H]3C2)n1` to `CC1CN(Cc2cccc(CNC3CCCC3)c2)CCO1` (stereo unspecified), the cytotoxicity at 70.5 h rises from 2.82% to 12.8%.

Going from `CC1CCN(C(=O)CN2CCC(c3n[nH]c(C4CC4)n3)CC2)CC1` to `C1CCCN(C2CCCN(Cc3noc(C4CC4)n3)C2)CC1` (stereo unspecified), the cytotoxicity at 70.5 h falls from -1.53% to -1.66%.

Compared with `O=C(c1cc(Cn2ccc3ccccc32)[nH]n1)N1CCC[C@H]1CO`, `COc1cccc(OCc2cc(C(=O)N3CC(O)C3)n[nH]2)c1` is lower in cytotoxicity at 70.5 h: -0.0597% for the first, -2.2% for the second.

Going from `O=S(=O)(CC1CCCCO1)Nc1c(F)cccc1-n1cccn1` (stereo unspecified) to `CCN(CC)c1ccc(NS(=O)(=O)c2cnn(C)c2)cn1`, the cytotoxicity at 70.5 h rises from -3.07% to -2.05%.

Going from `CCc1nsc(NC2CCCn3nc(CC)nc32)n1` (stereo unspecified) to `CCCc1nc(N2CCCN3CCC[C@H]3C2)c2cnn(C)c2n1`, the cytotoxicity at 70.5 h rises from -5.19% to 15.2%.

First: Cc1n[nH]c(C)c1CCNC(=O)Nc1ccc2c(c1)COC2
Second: CC1(C)Oc2ccc(NC(=O)c3ccc(=O)[nH]n3)cc2O1
The cytotoxicity at 70.5 h of the first is lower: -19% for the first, -12.5% for the second.

Going from `CC(C)(O)c1cn(C2CCN(C(=O)CCC(F)(F)F)CC2)nn1` to `Cc1nc(C)n(C2CCCN(C(=O)CCOCC(C)C)C2)n1` (stereo unspecified), the cytotoxicity at 70.5 h rises from -2.56% to 11%.

Going from `CC(C)(C)c1n[nH]c(C2CN(Cc3nnc(C4CC4)o3)CCO2)n1` (stereo unspecified) to `Cc1cnc(CN(C)C2CCN(Cc3cnc(C)s3)C2)o1` (stereo unspecified), the cytotoxicity at 70.5 h falls from -6.03% to -8.23%.

Going from `CC(NC(=O)CN1C=Nc2ccccc2S1(=O)=O)C1CC1` (stereo unspecified) to `CC(=O)N1CCN(CCNC(=O)c2nc3ccccc3c(=O)[nH]2)CC1`, the cytotoxicity at 70.5 h falls from 11% to -7.43%.

Going from `CN(Cc1ccccc1)CC(O)Cn1cnc2cc(F)ccc2c1=O` (stereo unspecified) to `Cc1nc2ccccc2nc1CN1CCn2nc(CCC(=O)O)cc2C1`, the cytotoxicity at 70.5 h falls from -7.28% to -7.38%.

First: O=C1CC[C@@H](C(=O)N2CCc3[nH]nc(COc4cccc(Cl)c4)c3C2)N1
Second: CC(C)c1ccc(OCCC(=O)N2CCCC(C(N)=O)C2)cc1 (stereo unspecified)
The cytotoxicity at 70.5 h of the first is lower: -8.37% for the first, -5.32% for the second.

Going from `CNC(=O)c1sccc1S(=O)(=O)Nc1ccc(C)cc1` to `COc1ccc(S(=O)(=O)NCCC(=O)NCc2ccoc2)cc1OC`, the cytotoxicity at 70.5 h falls from -1.86% to -11.3%.

Compared with `CN(C)C[C@]12COC[C@H]1CN(Cc1ccccn1)C2`, `CN(C)C(=O)CO[C@H]1CO[C@@]2(CCN(Cc3ccoc3)C2)C1` is higher in cytotoxicity at 70.5 h: -8.89% for the first, -5.9% for the second.

Compared with `CCO[C@H]1CC[C@H]2[C@H]1OCCN2CCOCc1ccccc1`, `CC(C)(C)C(=O)N1C[C@@H](F)[C@@H](OCc2nc3ccccc3o2)C1` is higher in cytotoxicity at 70.5 h: -11.1% for the first, -3.29% for the second.

First: Cc1nn2cc(CNc3nccc(CCC(F)(F)F)n3)nc2s1
Second: N#CC(NC(=O)CC(F)(F)F)c1ccsc1 (stereo unspecified)
The cytotoxicity at 70.5 h of the first is lower: -9.54% for the first, -7.23% for the second.

Going from `Cc1ncc2c(c1CNC(=O)C1(C)CCCO1)CCNC2` (stereo unspecified) to `CC(C)CC1(C(=O)NCc2nncn2C2CC2)CCC1`, the cytotoxicity at 70.5 h rises from -7.21% to 1.12%.

First: COCC(C)(NC(=O)c1cc(Cl)c(-n2cccc2)cc1OC)C(N)=O (stereo unspecified)
Second: CCOc1nnc(CN2CCN(CCOC)C(CC)C2)s1 (stereo unspecified)
The cytotoxicity at 70.5 h of the first is lower: -2.57% for the first, 12.8% for the second.

Compared with `Cc1csc(NC(=O)[C@@H]2C[C@H]3[C@H](CCN3S(C)(=O)=O)O2)n1`, `CC(C)CC(CCO)CNC(=O)N1CC(C)(C)C1(C)C` (stereo unspecified) is lower in cytotoxicity at 70.5 h: -1.16% for the first, -7.83% for the second.

`O=C1CC2(CCCC2)CN1CCOc1ccc(F)cc1` gave a cytotoxicity at 70.5 h of -9.74%.
